The values that follow come from ChEMBL document CHEMBL5523700, “Discovery and characterization of potent spiro-isoxazole-based cereblon ligands with a novel binding mode” (Eur J Med Chem, 2024).

Each structure is given as a SMILES string.

Series [1] is described as follows: Lipophilicity, logP of compound by HPLC analysis. Type of series: physicochemical.
Series [2] can be described thus: Cytotoxicity against human PBMC cells assessed as cell survival at 30 uM incubated for 48 hrs by Cell Titer-Glo luminescent assay relative to control. In kind it is toxicity, cell-based. The following applies: read-out: Survival. In general terms: In ATP-based viability assays light output follows the ATP content of the culture.
The subject of another series is MOLP-8. The series can be described thus: Cytotoxicity against human MOLP8 cells assessed as cell survival at 30 uM incubated for 48 hrs by Cell Titer-Glo luminescent assay relative to control. Type of series: functional. The following applies: read-out: Survival.
In another series the test system is KMS-12-PE. As to the kind of experiment: Cytotoxicity against human KMS-12-PE cells assessed as cell survival at 30 uM incubated for 48 hrs by Cell Titer-Glo luminescent assay relative to control. The following applies: read-out: Survival. Type of series: functional.
Another series concerns MM1.S. The series can be described thus: Cytotoxicity against human MM1.S cells assessed as cell survival at 30 uM incubated for 48 hrs by Cell Titer-Glo luminescent assay relative to control. Type of series: functional. The following applies: read-out: Survival.
Series [3] can be described thus: Stability in human plasma assessed as half-life at 10 uM incubated upto 480 mins by HPLC analysis. Type of series: ADME, cell-free.
A further series addresses Protein cereblon (Homo sapiens, UniProt Q96SW2). The series can be described thus: Binding affinity to human CRBN TBD assessed as inhibition constant using BODIPY-uracil as substrate by Microscale thermophoresis assay.

The logP is a log measure of how a compound divides between an organic and an aqueous phase. In general, half-life refers to the time in which the quantity being followed falls by half. As a reminder, the Ki is a measure of affinity in units of concentration, obtained from inhibition or displacement.

Sequence of Protein cereblon (Q96SW2 whole entry): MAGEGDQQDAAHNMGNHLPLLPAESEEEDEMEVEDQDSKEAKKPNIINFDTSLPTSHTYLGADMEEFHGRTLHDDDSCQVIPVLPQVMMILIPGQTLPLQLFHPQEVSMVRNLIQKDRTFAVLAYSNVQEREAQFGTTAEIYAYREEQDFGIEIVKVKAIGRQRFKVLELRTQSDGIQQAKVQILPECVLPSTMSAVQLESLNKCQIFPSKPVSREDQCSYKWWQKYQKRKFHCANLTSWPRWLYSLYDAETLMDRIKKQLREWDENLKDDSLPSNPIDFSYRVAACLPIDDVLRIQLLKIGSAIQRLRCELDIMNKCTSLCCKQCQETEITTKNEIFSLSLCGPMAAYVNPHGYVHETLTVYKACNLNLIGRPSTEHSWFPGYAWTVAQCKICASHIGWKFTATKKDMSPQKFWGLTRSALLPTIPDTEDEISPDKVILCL

`O=C1CCC2(CC(c3ccccc3[N+](=O)[O-])=NO2)C(=O)N1` (stereo unspecified) registered a lipophilicity (logP) in series [1] of 1.23. In series [2], the viability at 48 h, 30 µM stood at 71.5%. Moreover, the figures for the viability at 30 µM in the series on MOLP-8, in the series on KMS-12-PE and in the series on MM1.S were 75.5%, 88.5% and 81.9%, respectively.
Molecule `O=C1CCC2(CC(c3ccccc3Br)=NO2)C(=O)N1` (stereo unspecified) returned a logP in series [1] of 1.68. Further, the viability at 48 h, 30 µM in series [2] turned out to be 74.9%. For the same molecule, the viability at 30 µM with MOLP-8 amounted to 100%; with KMS-12-PE, 97.8%; in the series with MM1.S it was 88.3%.
The like results for `O=C1CCC2(CC(c3ccccc3I)=NO2)C(=O)N1` (stereo unspecified) were, in that order, 1.75, 100%, 82.2%, 100% and 69.3%.
In turn, `O=C1CCC2(CC(C3CCCCC3)=NO2)C(=O)N1` (stereo unspecified) came in with a lipophilicity (logP) in series [1] of 1.87. Moreover, the viability at 48 h, 30 µM in series [2] was 100%. The viability at 30 µM in the series on MOLP-8 is 97%; with KMS-12-PE, 100%; with MM1.S, 100%.
`CCCC1=NOC2(CCC(=O)NC2=O)C1` (stereo unspecified) had a lipophilicity (logP) in series [1] of 0.87. Moreover, the viability at 48 h, 30 µM in series [2] is 100%. Besides, the viability at 30 µM in the series on MOLP-8 came out at 100%; in the series on KMS-12-PE, 100%; in the series with MM1.S, 76.7%.
`COc1ccc(C2=NOC3(CCC(=O)NC3=O)C2)c(OC)c1OC` (stereo unspecified) showed a lipophilicity (logP) in series [1] of 2.67. For the same molecule, the viability at 48 h, 30 µM in series [2] turned out to be 82.4%. Further, the viability at 30 µM came out at 66.3% with MOLP-8, 72.2% with KMS-12-PE and 78.7% in the series on MM1.S.
In series [1], `O=C1CCC2(CC(c3c(Cl)cccc3Cl)=NO2)C(=O)N1` (stereo unspecified) registered a logP of 1.96. Also, in series [2], the viability at 48 h, 30 µM was found to be 88.6%. Further, the viability at 30 µM with MOLP-8 stood at 94.9%; with KMS-12-PE, 99.3%; with MM1.S, 39.5%.
In the case of `O=C1CCC2(CC(c3ccc(C(=O)O)cc3)=NO2)C(=O)N1` (stereo unspecified), in series [2], the viability at 48 h, 30 µM came out at 99.5%. The viability at 30 µM was found to be 100% with MOLP-8, 97.3% in the series with KMS-12-PE and 95.6% in the series with MM1.S.
With `CC(C)(C)C1=NOC2(CCC(=O)NC2=O)C1` (stereo unspecified), the lipophilicity (logP) in series [1] came to 1.09. Besides, in series [2], the viability at 48 h, 30 µM amounted to 100%. Also, the viability at 30 µM in the series on MOLP-8 came to 100%; in the series with KMS-12-PE it was 100%; with MM1.S, 75.6%.
`O=C1CCC2(CC(c3ccccc3Cl)=NO2)C(=O)N1` (stereo unspecified): the log partition coefficient (logP) in series [1] was found to be 1.64. Further, the viability at 48 h, 30 µM in series [2] was determined as 100%. Further, the half-life at 10 µM in series [3] came to 4.97 h. In addition, the viability at 30 µM with MOLP-8 is 100%; in the series with KMS-12-PE, 100%; with MM1.S, 43.3%.
Take `CC1(C)CC(=O)NC(=O)C1`: at Protein cereblon, the Ki was 103 µM.
As to `O=C1CCC2(CC(c3ccccc3F)=NO2)C(=O)N1` (stereo unspecified), the logP in series [1] is 1.37. Besides, in series [2], the viability at 48 h, 30 µM was determined as 88.6%. In addition, the viability at 30 µM with MOLP-8 came to 84.5%; with KMS-12-PE, 89.2%; in the series on MM1.S, 76.5%.
`O=C1CCC2(CC(C3CCCC3)=NO2)C(=O)N1` (stereo unspecified) returned a logP in series [1] of 1.28. The viability at 48 h, 30 µM in series [2] is 89.9%. Also, the viability at 30 µM in the series on MOLP-8 was determined as 93%; in the series on KMS-12-PE, 92%; in the series on MM1.S, 62.2%.
In series [1], `O=C1CCC2(CC(c3ccc(Cl)cc3Cl)=NO2)C(=O)N1` (stereo unspecified) displayed a logP of 2.68. The viability at 48 h, 30 µM in series [2] is 100%. Moreover, the figures for the viability at 30 µM in the series with MOLP-8, with KMS-12-PE and in the series on MM1.S were 100%, 100% and 71.7%, respectively.
In the case of `O=C1CCC2(CC(c3cccnc3)=NO2)C(=O)N1` (stereo unspecified), the viability at 48 h, 30 µM in series [2] turned out to be 83.6%. Further, the viability at 30 µM in the series on MOLP-8 turned out to be 75.5%; in the series with KMS-12-PE, 88.9%; in the series with MM1.S, 23.2%.
Consider `COc1ccccc1C1=NOC2(CCC(=O)NC2=O)C1` (stereo unspecified), for which the logP in series [1] amounted to 2.22. The viability at 48 h, 30 µM in series [2] was 100%. In addition, the figures for the viability at 30 µM with MOLP-8, in the series on KMS-12-PE and in the series on MM1.S were 79.3%, 86.6% and 94.8%, respectively.
Regarding `CCC(CC)C1=NOC2(CCC(=O)NC2=O)C1` (stereo unspecified), in series [1], the logP came out at 1.6. The viability at 48 h, 30 µM in series [2] stood at 91.2%. Besides, the viability at 30 µM turned out to be 94.1% in the series on MOLP-8, 98.9% with KMS-12-PE and 89.1% in the series with MM1.S.
On to `Nc1cccc2c1C(=O)N(C1CCC(=O)NC1=O)C2=O` (stereo unspecified) [POMALIDOMIDE], for which the half-life at 10 µM in series [3] amounted to 3.03 h.
In series [1], `O=C1CCC(N2C(=O)c3ccccc3C2=O)C(=O)N1` (stereo unspecified) [THALIDOMIDE] came in with a logP of 0.3. Also, in series [2], the viability at 48 h, 30 µM amounted to 94.2%. Besides, the viability at 30 µM turned out to be 31.6% in the series with MOLP-8, 44.1% in the series with KMS-12-PE and 11.4% with MM1.S.
